Data published in BigSolDB 2.1.

CC(=O)Oc1ccccc1C(=O)Nc1ncc([N+](=O)[O-])s1
solubility (mole fraction)
Conditions	273.15 K	278.15 K	283.15 K	288.15 K	293.15 K	298.15 K	303.15 K	308.15 K	313.15 K
in 1,4-dioxane	–	–	–	0.0102	0.0131	0.0167	0.0207	0.0254	0.0311
in 2-butanone	0.00334	0.00496	0.0066	0.00859	0.0107	0.0131	0.0158	0.0191	0.0229
in DMF	0.0637	0.0672	0.0711	0.0751	0.0797	0.0846	0.0901	0.097	0.104
in NMP	0.0878	0.09	0.0925	0.0953	0.098	0.101	0.105	0.109	0.113
in acetonitrile	0.00082	0.000924	0.00103	0.00115	0.00127	0.00141	0.00158	0.00178	0.00201
in ethanol	0.000117	0.000147	0.000179	0.000211	0.000246	0.000285	0.000331	0.000385	0.00045
in ethyl acetate	0.00185	0.00206	0.00229	0.00252	0.00276	0.003	0.0033	0.00362	0.00399
in isopropanol	0.000162	0.000202	0.000243	0.000287	0.000333	0.000383	0.000436	0.000502	0.00058
in methanol	0.000103	0.000126	0.00015	0.000177	0.000202	0.00023	0.000261	0.000298	0.000334
in n-butanol	0.000176	0.000214	0.000257	0.000303	0.000354	0.000408	0.000471	0.000541	0.000617
in n-propanol	0.000138	0.000173	0.000211	0.00025	0.00029	0.000336	0.00039	0.000453	0.000525
in toluene	7.6e-05	9.9e-05	0.000123	0.000146	0.00017	0.000197	0.000225	0.000258	0.000291
